According to US6433019B1, “Neurotrophic factor secretion promoters” (Sumitomo Pharmaceuticals Company, Limited, priority 1998, dated 2002):
Where two headings read alike, the source gives them in different places.

What was measured:
[1] = cited from earlier work; for serious side effects: oral administration to human, estimated
[2] = test system: BDNF mRNA; assay: BDNF mRNA by quantitative RT-PCR in cultured brain neural cells; format: cell-based, rat
Method: (§1) The following experiment was done in order to confirm the NO production by neural cells, and to clarify which isozyme of three nitric oxide synthase isozymes (References el and e2) (neuronal type; nNOS, endothelial type; eNOS and inducible type; iNOS) is involved with the NO production, The cultured neural cells were prepared by using the neural cells from the cerebral neocortex of rat embryo (E18), and culturing thereof in a serum free medium for 7 days (Reference e3). The supernatant of the culture medium was collected, and the concentration of nitrite was determined, which was used as an index for the total amount of NO production (FIG. 1A). The concentration of nitrite was determined by Griess' method (Reference e4). During the cultivation, the accumulation of nitrite in the supernatant was increased. The expression of NOS in the cultured cells was detected by Western blotting (FIG. 1B). The protein extracted from the cultured cells being electrophoresed on a nitrocellulose membrane was detected by labeling it with 3 anti-NOS antibodies (Transduction Lab., 1/500 to 1000 dilution), treating with peroxidase-labeled anti-IgG antibody, and visualizing by chemical luminescence reaction (ECL kit by Amersham Pharmacia Biotech). In the cultured neural cell sample, the nNOS-like immunoreaction was detected, but eNOS immunoreaction was hardly detected, and further INOS immunoreaction was not detected at all. The product by nNOS immunoreaction as mentioned above has a molecular weight of about 160 kD, which is coincident with that of nNOS as reported in literatures. […]
(§2) From the finding that the inhibition of NO synthesis in the cultured brain neural cells increased the expression of BDNF gene, it was clarified that endogenous NO affect the regulation of BDNF gene expression. […] SNAP was added to the culture system at various concentrations, and 3 hours and 5 hours thereafter, the BDNF MRNA was determined by quantitative RT-PCR, and the BDNF protein in the cells was determined by EIA, in the same manner as in Example 2.

[3] = rats, cited from earlier work
[4] = test system: cultured neural cells from the cerebral neocortex of rat embryo (E18); assay: NO production (nitrite, Griess' method) in the cultured neural cells; format: cell-based; conditions: 3 hours and 5 hours after addition, FIG. 2A
Method: as §1, with “During the cultivation, the accumulation of nitrite in the supernatant was increased.” left out, “all.” for “all. The product by nNOS immunoreaction as mentioned above has a molecular weight of about 160 kD, which is coincident with that of nNOS as reported in literatures.”

[5] = test system: BDNF protein; assay: BDNF protein in the cells by EIA; format: cell-based, rat; conditions: for BDNF protein in the cells: FIG. 2C
Method: as §1, §2

[6] = test system: BDNF-trkB complex; assay: BDNF release: sandwich immunoassay of BDNF-trkB complex on the cell surface; format: cell-based, rat; conditions: FIG. 3B
Source text: The effects of an NO donor on the BDNF release were studied in order to clarify the inhibitory effects of SNAP at a high dose on the BDNF protein accumulation. First, the measurement of BDNF concentration in the culture supernatant was tried, but the concentration of BDNF therein was below a detection limitation value of an ordinary EIA, which was considered that the released BDNF immediately combines with the cell surface, even with the trkB receptor. Then, using an anti-pan-trk receptor antibody, a sandwich immunoassay was tried in order to determine the BDNF combined with a trk B receptor on the cell surface.

[7] = test system: cultured brain neural cells; assay: Growth of cultured neural cells (cytotoxicity); format: cell-based, rat; conditions: high dose (1000 μM)
[8] = compared with other NO donors (Reference e5); cited from earlier work

N=C(N)NCCC[C@H](N)C(=O)O [arginine]
toxicity ([1]; up to 20 g per day of arginine glutamate by intravenous drip): quite low

O=[N+]([O-])OCC(CO[N+](=O)[O-])O[N+](=O)[O-] [NTG, nitroglycerin]
serious side effects ([1]; dose up to several mg per day): does not show serious side effects

COCC(/C(C)=C/C(=N/O)C(N)=O)[N+](=O)[O-] (stereo not shown) [NOR1]
expression of BDNF gene ([2]; dose not given): exhibited the same promoting activity

O=[N+]([O-])O[C@@H]1CO[C@H]2[C@@H]1OC[C@@H]2O [ISMN, isosorbide mononitrate]
LD50 ([3]; i.v.): 40 mg/kg
LD50 ([3]; p.o.): 1050 to 1550 mg/kg

CC(=O)NC(C(=O)O)C(C)(C)SN=O (racemic) [SNAP, S-nitroso-N-acetyl-DL-penicillamine]
NO release from the NO donor (nitrite) [4]: NO was released from the NO donor
expression of BDNF gene ([2]; lower dose (30 to 300 μM), FIG. 2B): increased dose-dependently
expression of BDNF mRNA ([2]; quite high dose (1000 μM), FIG. 2B): inhibited
BDNF protein in the cells ([5]; higher dose than 30 μM): dose-dependent decrease
BDNF protein in the cells ([5]; only at 30 μM): increased
amount of the BDNF-trkB complex ([6]; dose of 100 μM or more): significantly increased
growth of cells [7]: no change in the growth of cells
cytotoxicity [8]: weaker than that of other NO donors

O=[N+]([O-])O[C@H]1CO[C@H]2[C@@H]1OC[C@H]2O[N+](=O)[O-] [ISDN, isosorbide dinitrate]
serious side effects ([1]; dose up to dozens mg per day): does not show serious side effects

N[C@@H](CCC(=O)O)C(=O)O [glutamic acid]
BDNF synthesis promoting activity [5]: potent BDNF synthesis promoting activity
BDNF secretion promoting activity [6]: did not show a distinguished BDNF secretion promoting activity
